Columns and labels:
Assay type in all cases: cell-based
A. baumannii 160S = experiment: MIC, CLSI broth microdilution assay; conditions: agent alone
Description: (§1) For the described examples, reference and clinical isolates were generally obtained from known sources, including American Type Culture Collection (Manasas, VA.) or International Health Management Associates, Inc. (Schaumberg, IL). Bacteria were cultured in suitable broth, concentrated by centrifugation, and cryopreserved in the same medium, generally containing 20% glycerol by holding at −80° C. Every two weeks a small amount of frozen culture was removed aseptically and streaked on fresh agar plates to act as a working inoculum. Following overnight growth at about 37° C., the plates were wrapped in parafilm and held at about 4° C. Bacteria (4-5 colonies) were then aseptically transferred into broth growth medium for assays as needed.
(§2) Minimal inhibitory concentration (MIC) assays were performed in a manner as described for the CLSI broth microdilution assay guideline (see, Clinical Laboratory Standards Institute, 2009, Methods for Dilution Antimicrobial Susceptibility Tests for Bacteria That Grow Aerobically; Approved Standard, Eighth Edition, M07-A8, Vol. 29, No. 2). Antibiotics were dissolved, and then serially diluted in suitable broth across the assay plate in the classical 2-fold geometric format. Antibiotic concentrations in each well at this point were double what the final assay concentration would be. Bacterial inocula were prepared by swabbing several colonies from a fresh agar plate, and resuspending the bacteria to a density that was the 0.5 McFarland turbidity standard (generally close or equivalent to 1×10^8 CFU/mL). The bacterial inocula were diluted in the broth to about 1×10^6 CFU/mL, and a suitable amount, e.g., 100 μL was overlayered onto the wells containing the diluted antibiotics. Following incubation as per the guideline, results were recorded as growth or no growth, and the lowest concentration of antibiotic where no growth was observed was declared the MIC.

E. coli 7623 [1] = experiment: MIC, CLSI broth microdilution assay; conditions: agent alone
Description: as §1, §2

E. coli ATCC 25922 = experiment: MIC, CLSI broth microdilution assay; conditions: agent alone
Description: as §1, §2

K. pneumoniae 1161486 [2] = experiment: MIC, CLSI broth microdilution assay; conditions: agent alone
Description: as §1, §2

K. pneumoniae 170S [3] = experiment: MIC, CLSI broth microdilution assay; conditions: agent alone
Description: as §1, §2

E. coli 7623 [4] = experiment: Synergy checkerboard assay of antibacterial combinations; conditions: in combination with A-24
Description: as §1
as §2, with “Bacterial inocula were prepared by swabbing several colonies from a fresh agar plate, and resuspending the bacteria to a density that was the 0.5 McFarland turbidity standard (generally close or equivalent to 1×10^8 CFU/mL). The bacterial inocula were diluted in the broth to about 1×10^6 CFU/mL, and a suitable amount, e.g., 100 μL was overlayered onto the wells containing the diluted antibiotics.” left out
(§3) To assay for synergy of antibacterial combinations, a recognized synergy checkerboard assay, adapted from the CLSI guideline microdilution assay, was utilized (see Eliopoulos, G. M., and Moellering, R. C, Jr., 1996. Antimicrobial Combinations, pg. 330-396. In: Lorian, V. (Ed.), Antibiotics in Laboratory Medicine, 4th Ed., Williams & Wilkins; Baltimore, MD). […] The fractional inhibitory concentration, which provides the mathematical definition (as shown below) is calculated to determine whether antibacterial synergy was observed. […]

K. pneumoniae 1161486 [5] = experiment: as above; conditions: in combination with A-24
Description: as §1
as §2, with “Bacterial inocula were prepared by swabbing several colonies from a fresh agar plate, and resuspending the bacteria to a density that was the 0.5 McFarland turbidity standard (generally close or equivalent to 1×10^8 CFU/mL). The bacterial inocula were diluted in the broth to about 1×10^6 CFU/mL, and a suitable amount, e.g., 100 μL was overlayered onto the wells containing the diluted antibiotics.” left out
as §3

K. pneumoniae 170S [6] = experiment: as above; conditions: in combination with A-24
Description: as §1
as §2, with “Bacterial inocula were prepared by swabbing several colonies from a fresh agar plate, and resuspending the bacteria to a density that was the 0.5 McFarland turbidity standard (generally close or equivalent to 1×10^8 CFU/mL). The bacterial inocula were diluted in the broth to about 1×10^6 CFU/mL, and a suitable amount, e.g., 100 μL was overlayered onto the wells containing the diluted antibiotics.” left out
as §3

For pristinamycin, the MIC (A. baumannii 160S) was 128 µg/mL, the MIC (E. coli 7623 [1]) was 64 µg/mL and the MIC (E. coli ATCC 25922) was 64 µg/mL. For the same substance, the MIC (K. pneumoniae 1161486 [2]) was >128 µg/mL, the MIC (K. pneumoniae 170S [3]) was >128 µg/mL and the “MIC of Pristinamycin in Combo” value (E. coli 7623 [4]) was 32 µg/mL. For the same substance, the “MIC of Pristinamycin in Combo” value (K. pneumoniae 1161486 [5]) was ≤2 µg/mL and the “MIC of Pristinamycin in Combo” value (K. pneumoniae 170S [6]) was 2 µg/mL.
